Test results from paper PMC7260336, “Identification of a species-specific aminotransferase in Pediococcus acidilactici capable of forming α-aminobutyrate” (AMB Express, 2020).

Legend:
[1] = target: T1, Aat (recombinant His-tagged aminotransferase) (Pediococcus acidilactici, UniProt E0NE36); assay: coupled assay, glutamate formed measured with glutamate dehydrogenase/diaphorase; type: biochemical; conditions: amino donor; 5 mM amino acid, 10 mM alpha-ketoglutarate, 50 uM pyridoxal 5-phosphate, pH 5.5, 37 °C
T1 construct: gene aspC; full length, C-terminal His tag (pEXP5-CT/TOPO), E. coli BL21(DE3), Ni-TED purified; gene about 1200 bp; cloning primers translate to N-terminus MSDKVNA and native C-terminus LKAKRA; locus tag contradictory: primers designed for GBO44_RS03485 in Methods, GBO44_RS04865 in Results
T1 sequence (E0NE36 1-394): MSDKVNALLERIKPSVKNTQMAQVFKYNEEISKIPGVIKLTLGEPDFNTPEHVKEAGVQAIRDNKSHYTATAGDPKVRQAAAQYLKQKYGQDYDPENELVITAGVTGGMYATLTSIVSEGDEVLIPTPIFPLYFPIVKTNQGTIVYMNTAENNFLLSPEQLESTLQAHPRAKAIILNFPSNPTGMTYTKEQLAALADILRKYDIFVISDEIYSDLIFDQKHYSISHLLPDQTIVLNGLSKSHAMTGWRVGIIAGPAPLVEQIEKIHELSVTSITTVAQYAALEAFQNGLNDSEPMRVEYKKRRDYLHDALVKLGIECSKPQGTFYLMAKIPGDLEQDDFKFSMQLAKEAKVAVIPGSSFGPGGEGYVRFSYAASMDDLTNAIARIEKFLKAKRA

[2] = target: T1, Aat (recombinant His-tagged aminotransferase); assay: HPLC of amino acids formed; type: biochemical; conditions: amino acceptor; leucine, AABA or alanine as amino donor, 50 uM pyridoxal 5-phosphate, pH 5.5, 37 °C, 1 h

SMILES | coupled assay, glutamate formed measured with glutamate dehydrogenase/diaphorase [1] | HPLC of amino acids formed [2]
CC(C)C[C@H](N)C(=O)O [Leu, L-leucine] | the enzyme transferred the amino group from leucine, methionine, AABA, alanine, cysteine, and phenylalanine | –
CCC(=O)C(=O)O [AKB, α-ketobutyrate] | – | AKB, pyruvate, KMTB, KIC, and PPA significantly preferred amino group acceptors to AKG
